Results as given in ChEMBL document CHEMBL1201862, “PubChem BioAssay data set” (2004).
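Cells were grown in 96-well plates and exposed to each compound for 48 hours at five concentrations; endpoints were interpolated linearly between bracketing concentrations, or set to the highest concentration if not reached. At the GI50, growth is halved.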 Active and inactive are the calls of the source. No stated cut-off is given here; in the data, active = GI50 up to about 1.1 µM and inactive = higher.

Tests used:
Test in all cases: NCI anticancer screen, dose series, 48 h
OVCAR-8 = tested on: OVCAR-8
RPMI-8226 = tested on: RPMI-8226
TK-10 = tested on: TK-10
SW-620 = tested on: SW-620
RXF 393 = tested on: RXF 393
SN12C = tested on: SN12C
UACC-257 = tested on: UACC-257
HT-29 = tested on: HT-29
K562 = tested on: K562
NCI-H522 = tested on: NCI-H522
SF-268 = tested on: SF-268
SNB-75 = tested on: SNB-75
SK-MEL-28 = tested on: SK-MEL-28
Malme-3M = tested on: Malme-3M
UACC-62 = tested on: UACC-62
HCC 2998 = tested on: HCC 2998
SK-OV-3 = tested on: SK-OV-3

Row | SMILES | GI50 (OVCAR-8) | GI50 (RPMI-8226) | GI50 (TK-10) | GI50 (SW-620) | GI50 (RXF 393) | GI50 (SN12C) | GI50 (UACC-257) | GI50 (HT-29) | GI50 (K562) | GI50 (NCI-H522) | GI50 (SF-268) | GI50 (SNB-75) | GI50 (SK-MEL-28) | GI50 (Malme-3M) | GI50 (UACC-62) | GI50 (HCC 2998) | GI50 (SK-OV-3)
1 | CCOC(=O)N[C@H]1CCc2cc(O)c(OC)c(OC)c2-c2ccc(SC)c(=O)cc21 | 0.0301 µM (active) | < 0.0135 µM (active) | 0.394 µM (active) | < 0.0137 µM (active) | < 0.01 µM (active) | 0.046 µM (active) | < 0.0491 µM (active) | < 0.0135 µM (active) | 0.0136 µM (active) | 0.0177 µM (active) | 0.0207 µM (active) | < 0.01 µM (active) | < 0.029 µM (active) | 0.0111 µM (active) | < 0.0144 µM (active) | 0.113 µM (active) | 0.24 µM (active)
2 | CN1CCN(CCSC2Cc3cc(Cl)ccc3Sc3ccccc32)CC1 (stereo unspecified) | 7.91 µM (inactive) | 2.26 µM (inactive) | 5.13 µM (inactive) | 2.81 µM (inactive) | 4.19 µM (inactive) | 9.12 µM (inactive) | 1.9 µM (inactive) | 1.63 µM (inactive) | 1.71 µM (inactive) | 5.93 µM (inactive) | 8.47 µM (inactive) | 5.82 µM (inactive) | 1.86 µM (inactive) | 2.45 µM (inactive) | 1.91 µM (inactive) | 4.18 µM (inactive) | 16.7 µM (inactive)
3 | O=C(Nc1nc2ncn(CCNCCn3cnc4nc(NC(=O)c5ccccc5)[nH]c(=O)c43)c2c(=O)[nH]1)c1ccccc1 | > 100 µM (inactive) | > 100 µM (inactive) | > 100 µM (inactive) | > 100 µM (inactive) | > 100 µM (inactive) | > 100 µM (inactive) | > 100 µM (inactive) | > 100 µM (inactive) | > 100 µM (inactive) | > 100 µM (inactive) | > 100 µM (inactive) | > 100 µM (inactive) | > 100 µM (inactive) | > 100 µM (inactive) | > 100 µM (inactive) | > 100 µM (inactive) | > 100 µM (inactive)
4 | FC(F)(F)c1ccccc1C1SCc2nc3ccccc3n21 (stereo unspecified) | 61.4 µM (inactive) | 23 µM (inactive) | > 100 µM (inactive) | > 100 µM (inactive) | 91.8 µM (inactive) | 31.6 µM (inactive) | 26.1 µM (inactive) | 33.8 µM (inactive) | 16.2 µM (inactive) | 18.3 µM (inactive) | 61.9 µM (inactive) | > 100 µM (inactive) | 77.8 µM (inactive) | 25.4 µM (inactive) | 22.5 µM (inactive) | > 100 µM (inactive) | 60.7 µM (inactive)
5 | COc1cc2ccc(CC(=O)O)cc2cc1OC | > 100 µM (inactive) | > 100 µM (inactive) | > 100 µM (inactive) | > 100 µM (inactive) | > 100 µM (inactive) | > 100 µM (inactive) | > 100 µM (inactive) | > 100 µM (inactive) | > 100 µM (inactive) | > 100 µM (inactive) | > 100 µM (inactive) | > 100 µM (inactive) | > 100 µM (inactive) | > 100 µM (inactive) | > 100 µM (inactive) | > 100 µM (inactive) | > 100 µM (inactive)
6 | O=C(O)CS [THIOGLYCOLIC ACID] |  | > 100 µM (inactive) | > 100 µM (inactive) | > 100 µM (inactive) | > 100 µM (inactive) | > 100 µM (inactive) | > 100 µM (inactive) | > 100 µM (inactive) | > 100 µM (inactive) | > 100 µM (inactive) | > 100 µM (inactive) | > 100 µM (inactive) | > 100 µM (inactive) | > 100 µM (inactive) | > 100 µM (inactive) | > 100 µM (inactive) | > 100 µM (inactive)
